Measurements published in US10660877B2 (BRISTOL-MYERS SQUIBB COMPANY, priority 2016, dated 2020).
Read-outs that look alike come from different tables or passages of the source.

Columns and labels:
[1] = molecular target: human TLR9 (Homo sapiens (Human), UniProt Q9NR96); assay: TLR9 inhibition reporter assay (HEK-Blue cells, SEAP reporter, ODN2006 stimulation);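 note: compounds tested over 0.05 nM to 50 µM, 22 h incubation, inhibition taken as SEAP signal drop from agonist plus DMSO wells toward a known inhibitor control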
Chain of human TLR9 (Q9NR96 26-1032): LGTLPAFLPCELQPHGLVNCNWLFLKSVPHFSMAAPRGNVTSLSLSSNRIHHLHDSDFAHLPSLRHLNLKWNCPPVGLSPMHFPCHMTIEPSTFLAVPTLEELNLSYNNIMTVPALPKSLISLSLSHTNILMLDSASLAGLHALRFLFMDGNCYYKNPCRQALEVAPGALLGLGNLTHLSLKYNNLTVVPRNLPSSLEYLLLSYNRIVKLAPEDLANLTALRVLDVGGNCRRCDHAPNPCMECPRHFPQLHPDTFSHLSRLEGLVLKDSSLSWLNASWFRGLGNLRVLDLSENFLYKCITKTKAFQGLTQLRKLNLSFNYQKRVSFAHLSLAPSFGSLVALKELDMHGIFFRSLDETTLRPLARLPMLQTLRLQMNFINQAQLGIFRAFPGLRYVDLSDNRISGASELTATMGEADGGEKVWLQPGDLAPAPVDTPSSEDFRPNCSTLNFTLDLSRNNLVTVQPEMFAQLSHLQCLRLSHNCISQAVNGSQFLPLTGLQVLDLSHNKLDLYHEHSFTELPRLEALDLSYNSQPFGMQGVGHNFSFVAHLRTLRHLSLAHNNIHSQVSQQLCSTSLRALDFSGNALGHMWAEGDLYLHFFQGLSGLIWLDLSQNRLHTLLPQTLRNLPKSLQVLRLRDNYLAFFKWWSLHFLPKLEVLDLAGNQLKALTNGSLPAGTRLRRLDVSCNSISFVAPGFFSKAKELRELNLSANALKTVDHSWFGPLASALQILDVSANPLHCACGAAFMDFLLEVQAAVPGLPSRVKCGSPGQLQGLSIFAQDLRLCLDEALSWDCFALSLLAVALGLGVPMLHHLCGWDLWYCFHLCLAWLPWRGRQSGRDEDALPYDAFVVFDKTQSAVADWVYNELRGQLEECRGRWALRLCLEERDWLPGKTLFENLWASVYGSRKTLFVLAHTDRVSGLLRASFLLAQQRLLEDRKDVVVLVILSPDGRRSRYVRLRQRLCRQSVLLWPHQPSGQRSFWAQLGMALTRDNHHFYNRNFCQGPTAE

[2] = molecular target: human TLR7 (Homo sapiens (Human), UniProt Q9NYK1); assay: TLR7 inhibition reporter assay (HEK-Blue cells, SEAP reporter, gardiquimod stimulation); assay type: cell-based
Chain of human TLR7 (Q9NYK1 27-1049): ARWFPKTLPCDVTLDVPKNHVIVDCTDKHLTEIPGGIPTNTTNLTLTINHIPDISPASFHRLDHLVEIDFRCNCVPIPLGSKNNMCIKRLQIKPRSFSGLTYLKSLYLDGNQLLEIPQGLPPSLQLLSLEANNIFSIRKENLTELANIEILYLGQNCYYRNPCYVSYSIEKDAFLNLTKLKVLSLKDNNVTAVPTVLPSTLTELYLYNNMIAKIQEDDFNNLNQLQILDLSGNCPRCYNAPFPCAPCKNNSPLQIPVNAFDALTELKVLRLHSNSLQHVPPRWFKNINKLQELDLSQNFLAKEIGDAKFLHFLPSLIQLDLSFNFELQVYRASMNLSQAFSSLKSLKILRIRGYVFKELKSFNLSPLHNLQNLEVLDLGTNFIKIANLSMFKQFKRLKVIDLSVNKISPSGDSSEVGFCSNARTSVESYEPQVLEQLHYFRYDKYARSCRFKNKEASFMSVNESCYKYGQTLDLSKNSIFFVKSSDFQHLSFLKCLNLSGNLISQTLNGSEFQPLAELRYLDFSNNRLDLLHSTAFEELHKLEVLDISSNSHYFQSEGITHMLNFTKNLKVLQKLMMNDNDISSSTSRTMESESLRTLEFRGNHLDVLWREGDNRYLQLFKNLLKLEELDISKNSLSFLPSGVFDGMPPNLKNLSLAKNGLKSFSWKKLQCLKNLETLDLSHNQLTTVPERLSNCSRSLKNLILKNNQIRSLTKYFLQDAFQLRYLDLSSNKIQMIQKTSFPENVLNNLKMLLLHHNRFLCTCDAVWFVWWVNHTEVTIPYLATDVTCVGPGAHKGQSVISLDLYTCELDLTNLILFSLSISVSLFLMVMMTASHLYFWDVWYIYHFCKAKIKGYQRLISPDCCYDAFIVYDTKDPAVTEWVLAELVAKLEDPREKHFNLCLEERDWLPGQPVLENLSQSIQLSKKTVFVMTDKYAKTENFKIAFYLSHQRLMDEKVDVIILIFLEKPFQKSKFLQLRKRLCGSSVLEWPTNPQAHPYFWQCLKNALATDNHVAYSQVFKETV

[3] = read-out: TLR9 IC50, HEK-Blue cells overexpressing human TLR9, ODN2006 5 nM
[4] = HEK-Blue cells overexpressing human TLR7, gardiquimod 7.5 μM
[5] = read-out: TLR9 IC50, HEK-Blue cells, ODN2006 5 nM
[6] = HEK-Blue cells, gardiquimod 7.5 μM

Row | SMILES | IC50 [1, 3] [nM] | IC50 [2, 4] [nM] | IC50 [1, 5] [nM] | IC50 [2, 6] [nM]
1 | CCc1c(-c2ccnc(C)c2)[nH]c2ccc(C3CCNCC3)cc12 [Example 63, 3-ethyl-2-(2-methylpyridin-4-yl)-5-(piperidin-4-yl)-1H-indole] | 329 | 27.7 |  | 
2 | CCc1c(-c2ccncc2)[nH]c2ccc(C3CCN(Cc4cccn4C)CC3)cc12 [Example 805, 3-ethyl-5-(1-((1-methyl-1H-pyrrol-2-yl)methyl)piperidin-4-yl)-2-(pyridin-4-yl)-1H-indole] | 1210 | 610 |  | 
3 | COc1cc(-c2[nH]c3ccc(C4CCNCC4)cc3c2C(C)C)ccn1 [Example 485, 3-isopropyl-2-(2-methoxypyridin-4-yl)-5-(piperidin-4-yl)-1H-indole] | 3040 | 11.8 |  | 
4 | CNCCN1CCC(c2ccc3[nH]c(-c4ccnc(OC)c4)c(C)c3c2)CC1 [Example 777, 2-(4-(2-(2-methoxypyridin-4-yl)-3-methyl-1H-indol-5-yl)piperidin-1-yl)-N-methylethan-1-amine] |  | 515 |  | 
5 | CNCCN1CCC(c2ccc3[nH]c(-c4cc(OCCOC)ncc4F)c(C)c3c2)CC1 [Example 749, 2-(4-(2-(5-fluoro-2-(2-methoxyethoxy)pyridin-4-yl)-3-methyl-1H-indol-5-yl)piperidin-1-yl)-N-methylethan-1-amine] | 640 | 4830 |  | 
6 | CCc1c(-c2ccnc(OC)c2)[nH]c2ccc(C3CCN(C4CCNCC4)CC3)cc12 [Example 787, 5-([1,4′-bipiperidin]-4-yl)-3-ethyl-2-(2-methoxypyridin-4-yl)-1H-indole] | 480 | 459 |  | 
7 | CCc1cc(-c2[nH]c3ccc(C4CCN(CCNC)CC4)cc3c2C)ccn1 [Example 748, 2-(4-(2-(2-ethylpyridin-4-yl)-3-methyl-1H-indol-5-yl)piperidin-1-yl)-N-methylethan-1-amine] | 95 | 495 |  | 
8 | Cc1nc(C)c(C)c(-c2[nH]c3ccc(C4CCNCC4)cc3c2C(C)C)c1C [Example 43, 3-isopropyl-5-(piperidin-4-yl)-2-(2,3,5,6-tetramethylpyridin-4-yl)-1H-indole] | 546 | 278 |  | 
9 | CCc1c(-c2ccnc(OC(F)F)c2)[nH]c2ccc(C3CCN(C4CCN(CC(C)C)CC4)CC3)cc12 [Example 774, 2-(2-(difluoromethoxy)pyridin-4-yl)-3-ethyl-5-(1′-isobutyl-[1,4′-bipiperidin]-4-yl)-1H-indole] | 663 | 3700 |  | 
10 | CCc1c(-c2ccnc(C)c2)[nH]c2ccc(C3CCNCC3)c(C)c12 [Example 82, 3-ethyl-4-methyl-2-(2-methylpyridin-4-yl)-5-(piperidin-4-yl)-1H-indole] |  | 7.3 |  | 
11 | Cc1cc(-c2[nH]c3ccc(C4CCNCC4)c(F)c3c2C(C)C)cc(C)n1 [Example 77, 2-(2,6-dimethylpyridin-4-yl)-4-fluoro-3-isopropyl-5-(piperidin-4-yl)-1H-indole] | 344 | 0.5 |  | 
12 | CCc1c(-c2ccncc2)[nH]c2ccc(C3CCN(C4CCN(C)CC4)CC3)cc12 [Example 806, 3-ethyl-5-(1′-methyl-[1,4′-bipiperidin]-4-yl)-2-(pyridin-4-yl)-1H-indole] | 365 | 1210 |  | 
13 | CC(C)c1c(-c2ccnc(C3CC3)c2)[nH]c2ccc(C3CCNCC3)cc12 [Example 483, 2-(2-cyclopropylpyridin-4-yl)-3-isopropyl-5-(piperidin-4-yl)-1H-indole] | 1440 | 46.2 |  | 
14 | CCc1c(-c2ccncc2)[nH]c2ccc(C3CCN(CCNC)CC3)cc12 [Example 808, 2-(4-(3-ethyl-2-(pyridin-4-yl)-1H-indol-5-yl)piperidin-1-yl)-N-methylethan-1-amine] |  |  | 610 | 679
15 | CCc1cc(-c2[nH]c3ccc(C4CCNCC4)cc3c2C(C)C)cc(C)n1 [Example 479, 2-(2-ethyl-6-methylpyridin-4-yl)-3-isopropyl-5-(piperidin-4-yl)-1H-indole] | 3400 | 98.4 |  | 
16 | CC(C)c1c(-c2ccncc2)[nH]c2ccc(C3CCNCC3)cc12 [Example 38, 3-isopropyl-5-(piperidin-4-yl)-2-(pyridin-4-yl)-1H-indole] | 2150 | 38.4 |  | 
17 | COc1cc(-c2[nH]c3ccc(C4CCN(C5CCN(C(C)C)CC5)CC4)cc3c2C)ccn1 [Example 840, 5-(1′-isopropyl-[1,4′-bipiperidin]-4-yl)-2-(2-methoxypyridin-4-yl)-3-methyl-1H-indole] |  |  | 379 | 466
18 | CNCCN1CCC(c2ccc3[nH]c(-c4ccnc(OC)c4)c(C(C)C)c3c2)CC1 [Example 783, 2-(4-(3-isopropyl-2-(2-methoxypyridin-4-yl)-1H-indol-5-yl)piperidin-1-yl)-N-methylethan-1-amine] | 1010 | 55.1 |  | 
19 | CCc1c(-c2ccnc(OC(F)F)c2)[nH]c2ccc(C3CCN(C4CCN(CC(C)C)CC4)CC3)cc12 [Example 775, 2-(2-(difluoromethoxy)pyridin-4-yl)-3-ethyl-5-(1′-isobutyl-[1,4′-bipiperidin]-4-yl)-1H-indole] | 379 | 5660 |  | 

Row | SMILES | IC50 [1, 3] [nM] | IC50 [2, 4] [nM] | IC50 [1, 5] [nM] | IC50 [2, 6] [nM]
20 | CNCCN1CCC(c2ccc3[nH]c(-c4ccnc(OC)c4)c(CC4CC4)c3c2)CC1 [Example 784, 2-(4-(3-(cyclopropylmethyl)-2-(2-methoxypyridin-4-yl)-1H-indol-5-yl)piperidin-1-yl)-N-methylethan-1-amine] | 685 | 94 |  | 
21 | CCc1c(-c2ccnc(C)c2)[nH]c2cc(F)c(C3CCNCC3)c(F)c12 [Example 83, 3-ethyl-4,6-difluoro-2-(2-methylpyridin-4-yl)-5-(piperidin-4-yl)-1H-indole] |  | 11 |  | 
22 | CCN1CCC(N2CCC(c3ccc4[nH]c(-c5ccnc(OC)c5)c(C)c4c3)CC2)CC1 [Example 839, 5-(1′-ethyl-[1,4′-bipiperidin]-4-yl)-2-(2-methoxypyridin-4-yl)-3-methyl-1H-indole] |  |  | 4440 | 689
23 | Cc1cc(-c2[nH]c3ccc(C4CCNCC4)cc3c2C(C)C)cc(C2CC2)n1 [Example 478, 2-(2-cyclopropyl-6-methylpyridin-4-yl)-3-isopropyl-5-(piperidin-4-yl)-1H-indole] | 1330 | 10.2 |  | 
24 | CCNc1cc(-c2[nH]c3ccc(C4CCN(C5CCN(CC(C)C)CC5)CC4)cc3c2CC)ccn1 [Example 772, N-ethyl-4-(3-ethyl-5-(1′-isobutyl-[1,4′-bipiperidin]-4-yl)-1H-indol-2-yl)pyridin-2-amine] | 205 | 9850 |  | 
25 | CNCCN1CCC(c2ccc3[nH]c(-c4ccnc(C(F)(F)F)c4)c(C)c3c2)CC1 [Example 747, N-methyl-2-(4-(3-methyl-2-(2-(trifluoromethyl)pyridin-4-yl)-1H-indol-5-yl)piperidin-1-yl)ethan-1-amine] | 525 | 410 |  | 
26 | CC(C)c1c(-c2ccncc2CO)[nH]c2ccc(C3CCNCC3)cc12 [Example 19, (4-(3-isopropyl-5-(piperidin-4-yl)-1H-indol-2-yl)pyridin-3-yl)methanol] | 1860 | 124 |  | 
27 | Cc1cc(-c2[nH]c3cc(C)c(C4CCNCC4)cc3c2C(C)C)ccn1 [Example 75, 3-isopropyl-6-methyl-2-(2-methylpyridin-4-yl)-5-(piperidin-4-yl)-1H-indole] | 180 | 5 |  | 
28 | CNCCN1CCC(c2ccc3[nH]c(-c4ccnc(F)c4)c(C)c3c2)CC1 [Example 750, 2-(4-(2-(2-fluoropyridin-4-yl)-3-methyl-1H-indol-5-yl)piperidin-1-yl)-N-methylethan-1-amine] | 270 | 332 |  | 
29 | CC(C)c1c(-c2ccnc(C(F)(F)F)c2)[nH]c2ccc(C3CCNCC3)cc12 [Example 6, 3-isopropyl-5-(piperidin-4-yl)-2-(2-(trifluoromethyl)pyridin-4-yl)-1H-indole] | 1480 | 28.2 |  | 
30 | CCc1c(-c2ccnc(NC)c2)[nH]c2ccc(C3CCN(C4CCN(CC(C)C)CC4)CC3)cc12 [Example 771, 4-(3-ethyl-5-(1′-isobutyl-[1,4′-bipiperidin]-4-yl)-1H-indol-2-yl)-N-methylpyridin-2-amine] | 169 | 3370 |  | 
31 | CCc1c(-c2ccnc(OC)c2)[nH]c2ccc(C3CCN(C4CCN(C5CC5)CC4)CC3)cc12 [Example 788, 5-(1′-cyclopropyl-[1,4′-bipiperidin]-4-yl)-3-ethyl-2-(2-methoxypyridin-4-yl)-1H-indole] | 611 | 356 |  | 
32 | CNCCN1CCC(c2ccc3[nH]c(-c4ccncc4)c(C)c3c2)CC1 [Example 776, N-methyl-2-(4-(3-methyl-2-(pyridin-4-yl)-1H-indol-5-yl)piperidin-1-yl)ethan-1-amine] |  | 545 |  | 
33 | COc1cc(-c2[nH]c3ccc(C4CCNCC4)cc3c2C(C)C)cc(C)n1 [Example 46, 3-isopropyl-2-(2-methoxy-6-methylpyridin-4-yl)-5-(piperidin-4-yl)-1H-indole] | 2340 | 1.5 |  | 
34 | Cc1cc(-c2[nH]c3cc(F)c(C4CCNCC4)cc3c2C(C)C)ccn1 [Example 73, 6-fluoro-3-isopropyl-2-(2-methylpyridin-4-yl)-5-(piperidin-4-yl)-1H-indole] | 4720 | 4.4 |  | 
35 | COc1cc(-c2[nH]c3ccc(C4CCN(C5CCN(C)CC5)CC4)cc3c2C)ccn1 [Example 838, 2-(2-methoxypyridin-4-yl)-3-methyl-5-(1′-methyl-[1,4′-bipiperidin]-4-yl)-1H-indole] |  |  | 613 | 581
36 | CCc1c(-c2ccncc2)[nH]c2ccc(C3CCN(C4CCN(CC)CC4)CC3)cc12 [Example 809, 3-ethyl-5-(1′-ethyl-[1,4′-bipiperidin]-4-yl)-2-(pyridin-4-yl)-1H-indole] |  |  | 306 | 884
37 | Cc1cc(-c2[nH]c3ccc(C4CCN(C(=O)c5ccncc5)CC4)cc3c2C(C)C)cc(C)n1 [Example 113] | 15700 |  |  | 
